Reference: ChEMBL document CHEMBL5331145, “Discovery of a Novel Bifunctional Steroid Analog, YXG-158, as an Androgen Receptor Degrader and CYP17A1 Inhibitor for the Treatment of Enzalutamide-Resistant Prostate Cancer” (J Med Chem, 2023)
Calls of active or inactive are those of the source. No cut-off for these calls is given here.

Experiments:
[1] = Effect on androgen sensitive organs in testosterone propionate stimulated castrated male Sprague-Dawley rat assessed as seminal vesicles weight loss at 20 mg/kg, po administered once daily for 10 days and measured 24 hrs post last dose; assay type: functional; conditions: time 11 day
[2] = Effect on androgen sensitive organs in testosterone propionate stimulated castrated male Sprague-Dawley rat assessed as ventral prostate weight loss at 20 mg/kg, po administered once daily for 10 days and measured 24 hrs post last dose; assay type: functional; conditions: time 11 day
[3] = Antitumor activity against human LNCaP/AR cells xenografted in SCID male mouse assessed as tumor growth inhibition at 10 mg/kg, po administered once daily for 28 days and measured every 3 days; assay type: functional; conditions: time 28 day
[4] = biological target: GABA-A receptor; anion channel; assay: Antagonist activity at GABA-A (unknown origin); assay type: toxicity, Homo sapiens
LNCaP = assay: Antiproliferative activity against human LNCaP cells incubated for 6 days by CellTiter-Glo assay; assay type: functional, cell-based
[5] = biological target: Voltage-gated inwardly rectifying potassium channel KCNH2 (Homo sapiens, UniProt Q12809); assay: Inhibition of human ERG by patch clamp assay; assay type: toxicity
Sequence of Voltage-gated inwardly rectifying potassium channel KCNH2 (Q12809 whole entry): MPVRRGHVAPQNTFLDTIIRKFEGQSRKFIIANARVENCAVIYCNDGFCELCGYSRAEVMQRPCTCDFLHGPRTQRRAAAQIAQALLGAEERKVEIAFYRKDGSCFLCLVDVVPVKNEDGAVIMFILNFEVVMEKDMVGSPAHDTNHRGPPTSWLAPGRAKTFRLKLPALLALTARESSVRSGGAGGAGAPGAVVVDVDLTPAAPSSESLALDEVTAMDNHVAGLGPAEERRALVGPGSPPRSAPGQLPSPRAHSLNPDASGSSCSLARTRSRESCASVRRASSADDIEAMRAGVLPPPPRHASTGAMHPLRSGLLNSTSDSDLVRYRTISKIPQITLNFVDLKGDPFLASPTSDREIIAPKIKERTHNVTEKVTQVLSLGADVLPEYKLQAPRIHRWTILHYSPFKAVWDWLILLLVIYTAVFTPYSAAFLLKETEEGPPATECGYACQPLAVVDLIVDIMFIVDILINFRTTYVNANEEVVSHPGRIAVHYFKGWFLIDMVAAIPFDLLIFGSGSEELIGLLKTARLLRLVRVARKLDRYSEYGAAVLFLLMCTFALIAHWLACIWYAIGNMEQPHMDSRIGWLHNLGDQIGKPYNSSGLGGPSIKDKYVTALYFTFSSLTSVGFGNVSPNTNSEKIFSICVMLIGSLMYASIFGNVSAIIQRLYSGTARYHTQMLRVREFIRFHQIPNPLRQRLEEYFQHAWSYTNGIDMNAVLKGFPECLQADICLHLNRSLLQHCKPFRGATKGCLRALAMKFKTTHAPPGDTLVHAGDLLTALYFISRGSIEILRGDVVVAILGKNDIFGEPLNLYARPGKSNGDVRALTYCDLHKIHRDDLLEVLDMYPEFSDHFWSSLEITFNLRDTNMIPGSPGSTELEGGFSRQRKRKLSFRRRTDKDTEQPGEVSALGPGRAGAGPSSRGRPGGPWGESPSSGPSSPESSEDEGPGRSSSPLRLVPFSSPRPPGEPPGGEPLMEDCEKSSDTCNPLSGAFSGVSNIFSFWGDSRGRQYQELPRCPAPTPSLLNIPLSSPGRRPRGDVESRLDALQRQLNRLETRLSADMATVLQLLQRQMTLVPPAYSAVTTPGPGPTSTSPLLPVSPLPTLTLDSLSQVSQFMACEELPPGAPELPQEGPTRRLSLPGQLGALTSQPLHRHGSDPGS

Androgen receptor = biological target: T1, Androgen receptor (Homo sapiens, UniProt P10275); assay: Induction of androgen receptor degradation in human LNCaP cells incubated for 24 hrs by ELISA; assay type: cell-based
T1 sequence (P10275 whole entry): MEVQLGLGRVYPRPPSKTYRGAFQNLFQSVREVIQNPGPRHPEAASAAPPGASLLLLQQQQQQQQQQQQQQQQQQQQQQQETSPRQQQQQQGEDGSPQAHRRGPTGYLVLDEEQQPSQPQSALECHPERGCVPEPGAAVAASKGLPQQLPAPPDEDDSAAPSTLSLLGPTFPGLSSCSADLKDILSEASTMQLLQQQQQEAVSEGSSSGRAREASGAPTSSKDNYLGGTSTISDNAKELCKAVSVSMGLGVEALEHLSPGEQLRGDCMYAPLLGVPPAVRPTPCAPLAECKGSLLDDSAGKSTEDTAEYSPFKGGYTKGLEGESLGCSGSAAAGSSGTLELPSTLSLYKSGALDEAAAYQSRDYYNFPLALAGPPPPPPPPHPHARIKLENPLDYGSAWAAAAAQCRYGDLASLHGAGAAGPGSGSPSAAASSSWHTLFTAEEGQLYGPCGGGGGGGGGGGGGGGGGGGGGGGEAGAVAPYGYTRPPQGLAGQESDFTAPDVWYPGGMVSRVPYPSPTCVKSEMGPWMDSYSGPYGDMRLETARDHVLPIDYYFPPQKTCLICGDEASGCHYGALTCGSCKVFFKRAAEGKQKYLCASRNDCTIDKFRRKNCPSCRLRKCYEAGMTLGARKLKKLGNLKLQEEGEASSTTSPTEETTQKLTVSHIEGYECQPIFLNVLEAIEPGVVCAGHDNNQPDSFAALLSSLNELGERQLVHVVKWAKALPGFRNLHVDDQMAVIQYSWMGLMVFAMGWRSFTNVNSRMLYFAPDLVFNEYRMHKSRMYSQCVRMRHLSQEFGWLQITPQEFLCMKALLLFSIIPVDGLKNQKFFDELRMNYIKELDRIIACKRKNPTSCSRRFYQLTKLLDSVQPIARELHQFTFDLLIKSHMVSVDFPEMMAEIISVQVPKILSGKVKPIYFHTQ

[6] = biological target: T2, Androgen receptor (Homo sapiens) (UniProt P10275); assay: Potency index, ratio of galeterone DC50 to test compound DC50 for induction of androgen receptor degradation in human LNCaP cells; assay type: cell-based
T2 sequence (whole entry): T1 sequence (P10275 whole entry)

[7] = biological target: T3, Steroid 17-alpha-hydroxylase/17,20 lyase (Homo sapiens, UniProt P05093); assay: Inhibition of recombinant human CYP17A1 using progesterone as substrate incubated for 5 mins in presence of NADPH by LC-MS/MS analysis; assay type: ADME
T3 sequence (P05093 whole entry): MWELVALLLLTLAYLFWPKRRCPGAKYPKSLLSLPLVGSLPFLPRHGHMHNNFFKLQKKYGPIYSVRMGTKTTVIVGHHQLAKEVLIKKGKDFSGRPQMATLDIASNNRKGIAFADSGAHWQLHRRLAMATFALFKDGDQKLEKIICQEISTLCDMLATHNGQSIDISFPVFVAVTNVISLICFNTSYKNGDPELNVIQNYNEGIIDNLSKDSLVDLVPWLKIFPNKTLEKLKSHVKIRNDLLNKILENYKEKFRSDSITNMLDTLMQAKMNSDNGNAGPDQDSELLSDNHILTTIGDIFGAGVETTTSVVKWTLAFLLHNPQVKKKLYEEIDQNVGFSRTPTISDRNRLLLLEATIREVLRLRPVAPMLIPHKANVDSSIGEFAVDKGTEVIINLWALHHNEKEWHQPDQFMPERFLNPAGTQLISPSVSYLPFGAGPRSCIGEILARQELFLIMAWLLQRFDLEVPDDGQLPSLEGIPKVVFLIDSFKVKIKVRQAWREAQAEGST

[8] = test system: Androgen receptor (Homo sapiens), P10275 [F877L]; assay: Antagonist activity at androgen receptor F876L mutant expressed in HEK293 cells assessed as reduction in DHT-induced transcriptional activation of androgen receptor incubated for 24 hrs by Steady-Glo assay relative to control; assay type: cell-based; parameters: scale not given: the % may be the effect or the level left; conditions: filed as antagonist
Sequence of Androgen receptor (Homo sapiens), P10275 [F877L] (P10275 whole entry F877L): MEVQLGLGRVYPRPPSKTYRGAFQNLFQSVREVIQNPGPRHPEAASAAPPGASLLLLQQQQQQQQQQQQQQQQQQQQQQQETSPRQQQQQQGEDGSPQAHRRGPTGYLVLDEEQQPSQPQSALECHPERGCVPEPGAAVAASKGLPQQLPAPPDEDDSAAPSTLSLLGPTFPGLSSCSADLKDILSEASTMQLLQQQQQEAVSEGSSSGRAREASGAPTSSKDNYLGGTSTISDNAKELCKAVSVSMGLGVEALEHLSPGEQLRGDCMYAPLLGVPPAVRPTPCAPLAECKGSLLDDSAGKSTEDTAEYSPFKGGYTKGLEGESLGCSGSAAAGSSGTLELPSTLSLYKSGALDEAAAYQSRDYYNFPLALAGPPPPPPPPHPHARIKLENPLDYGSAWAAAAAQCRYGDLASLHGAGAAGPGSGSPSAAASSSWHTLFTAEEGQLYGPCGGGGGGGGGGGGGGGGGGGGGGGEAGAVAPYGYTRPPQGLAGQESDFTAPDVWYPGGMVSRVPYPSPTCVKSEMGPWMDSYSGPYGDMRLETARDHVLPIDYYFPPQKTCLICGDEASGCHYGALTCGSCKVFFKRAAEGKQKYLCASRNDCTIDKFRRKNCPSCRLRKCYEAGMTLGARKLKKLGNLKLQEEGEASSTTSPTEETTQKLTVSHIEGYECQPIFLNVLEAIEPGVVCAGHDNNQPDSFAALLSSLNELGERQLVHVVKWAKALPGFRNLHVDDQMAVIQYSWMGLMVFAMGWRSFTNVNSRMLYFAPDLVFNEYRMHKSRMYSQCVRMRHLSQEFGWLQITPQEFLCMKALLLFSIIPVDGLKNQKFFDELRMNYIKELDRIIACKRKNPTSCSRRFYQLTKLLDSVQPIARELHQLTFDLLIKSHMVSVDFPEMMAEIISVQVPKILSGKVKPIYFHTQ

[9] = Half life in Sprague-Dawley rat at 10 mg/kg, po measured upto 24 hrs by LC-MS/MS analysis; assay type: ADME, organism-based; conditions: in vivo
[10] = Tmax in Sprague-Dawley rat at 10 mg/kg, po measured upto 24 hrs by LC-MS/MS analysis; assay type: ADME, organism-based; conditions: in vivo
[11] = Cmax in Sprague-Dawley rat at 10 mg/kg, po measured upto 24 hrs by LC-MS/MS analysis; assay type: ADME, organism-based; parameters: dose 10 mg/kg, time < 24 hrs, route po; conditions: in vivo
[12] = AUC(0 to t) in Sprague-Dawley rat at 10 mg/kg, po measured upto 24 hrs by LC-MS/MS analysis; assay type: ADME, organism-based; conditions: in vivo
[13] = Toxicity in SCID male mouse xenografted with human LNCaP/AR cells assessed as tolerability at 10 mg/kg, po administered once daily for 28 days and measured every 3 days; assay type: organism-based; conditions: in vivo, 672 h, time 28 day
[14] = Toxicity in SCID male mouse xenografted with human LNCaP/AR cells assessed as animal weight loss at 10 mg/kg, po administered once daily for 28 days and measured every 3 days; assay type: organism-based; conditions: in vivo, 672 h, time 28 day
Mus musculus = assay: In vivo induction of androgen receptor in human LNCaP/AR cells xenografted in SCID mouse assessed as reduction in PSA level at 10 mg/kg, po administered once daily for 28 days by ELISA; assay type: functional, organism-based; conditions: time 28.0 day
[15] = biological target: Androgen receptor (Homo sapiens) (UniProt P10275); assay: In vivo induction of androgen receptor in human LNCaP/AR cells xenografted in SCID mouse assessed as reduction in AR protein level at 10 mg/kg, po administered once daily for 28 days by ELISA; conditions: time 28.0 day

SMILES	Activity [1]	Activity [2]	TGI [3]	IC50 [4]	IC50 (LNCaP)	IC50 [5]	EC50 (Androgen receptor)	Ratio [6]	IC50 [7]	Activity [8]	half-life [9]	Tmax [10]	Cmax [11]	AUCt [12]	inhibition in vivo at 10 mg/kg ([3]; Homo sapiens, LNCaP/AR, 672 h, read-out: TGI)	Activity [13]	Activity [14]	Activity (Mus musculus)	Activity [15]
CNC(=O)c1ccc(N2C(=S)N(c3ccc(C#N)c(C(F)(F)F)c3)C(=O)C2(C)C)cc1F [ENZALUTAMIDE]	-67%	-67%	64%	4800 nM															
Cc1cn(C2=CCC3C4CC=C5C[C@@H](NC(=O)c6ccc(F)cc6F)CC[C@]5(C)C4CC[C@]23C)cn1 (stereo partly specified)	-65%	-65%			327 nM	> 40000 nM	1680 nM	8.6	127 nM	41.6%	6.02 h	6 h	1520 ng/mL	22542 h/ng/mL	50%	Non-Toxic	Non-Toxic	Active	inactive
